Test [1] concerns the target T1, human recombinant GST cleaved CSNK1D (Homo sapiens, UniProt P48730).
T1 construct: GST (cleaved yes); purchased University of Dundee clone DU 19064
Nature of the test: Purified Enzyme Assay (ADP-Glo CSNK1D Kinase Assay). It counts as biochemical. The following applies: 2 nM CSNK1D; peptide substrate 150 μM; ATP 20 μM; 45 minutes at room temperature. The protocol: In this assay, CSNK1D phosphorylates a substrate peptide PLSRTL-pS-VASLPGL in the presence of ATP. […] This assay monitors CSNK1D kinase activity by measuring the amount of ADP produced in the assay.
The substrate mix is added to each well of a low volume, 384-well, white opaque plate. Test compounds were diluted in HBSS and added in a dose-response to the plate.
The total volume of each reaction is 5 ul (2 μL of substrate mix, 1 μL of diluted compounds, and 2 μL of human recombinant CSNK1D). The plates are incubated for 45 minutes at room temperature.
ADP was quantified using the ADP-Glo™ Kinase Assay. ADP-Glo Reagent (5 μL) was added to each well. After a 1 hour incubation at room temperature, Kinase Detection Reagent (10 μL) was added to each well and incubated for 30 minutes. […] The raw data from the Envision is used to calculate percent activity.
(In general: ADP-Glo turns the ADP formed in a reaction into a luminescent signal.)

The target in test [2] is T2, human CSNK1D (Homo sapiens, UniProt P48730).
T2 construct: expressed in transfected cells
Nature of the test: Whole Cell nBRET CSNK1D Binding Assay. As to conditions: living CHO cells stably expressing human CSNK1D tagged with nanoluciferase; NanoBret tracer 130 nM; 2 hours at 37 C.

In general, IC50 refers to the concentration at which inhibition is half-maximal.

T1 sequence (P48730 whole entry): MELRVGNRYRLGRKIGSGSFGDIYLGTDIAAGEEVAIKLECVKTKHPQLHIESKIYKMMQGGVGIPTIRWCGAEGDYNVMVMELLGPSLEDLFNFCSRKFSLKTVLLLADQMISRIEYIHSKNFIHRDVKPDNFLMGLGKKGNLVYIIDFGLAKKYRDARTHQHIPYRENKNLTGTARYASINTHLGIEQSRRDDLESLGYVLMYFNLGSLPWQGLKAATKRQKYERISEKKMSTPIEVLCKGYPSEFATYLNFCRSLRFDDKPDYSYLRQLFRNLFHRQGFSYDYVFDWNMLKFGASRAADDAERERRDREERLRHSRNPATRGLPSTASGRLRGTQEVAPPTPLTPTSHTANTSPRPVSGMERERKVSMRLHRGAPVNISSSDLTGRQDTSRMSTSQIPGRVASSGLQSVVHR
T2 sequence (P48730 whole entry): as above

With `Fc1ccc(-c2nn3c(c2-c2ccnc4[nH]ncc24)COCC32CC2)cc1` [Example 106, 2′-(4-Fluorophenyl)-3′-(1H-pyrazolo[3,4-b]pyridin-4-yl)-4′H,6′H-spiro[cyclopropane-1,7′-pyrazolo[5,1-c][1,4]oxazine]], the IC50 is 0.009 µM in test [1] and 0.137 µM in test [2].
Take `C[C@@H]1COCc2c(-c3ccnc4[nH]ncc34)c(-c3ccc(F)cc3)nn21` (single isomer, unassigned) [Example 92, (*R)-2-(4-Fluorophenyl)-7-methyl-3-(1H-pyrazolo[3,4-b]pyridin-4-yl)-6,7-dihydro-4H-pyrazolo[5,1-c][1,4]oxazine]: the half-inhibitory concentration (IC50) was 0.004 µM in test [1] and 0.1 µM in test [2].
In the case of `CC1CCn2nc(-c3ccc(F)cn3)c(-c3ccnc4[nH]ncc34)c2O1` (single isomer, unassigned) [Example 198, (*S)-2-(5-Fluoro-2-pyridyl)-5-methyl-3-(1H-pyrazolo[3,4-b]pyridin-4-yl)-6,7-dihydro-5H-pyrazolo[5,1-b][1,3]oxazine], the figures for the concentration for half-maximal inhibition (IC50) in test [1] and in test [2] were 0.003 µM and 0.059 µM, respectively.
Consider `Fc1ccc(-c2nn3c(c2-c2c(F)cnc4[nH]ncc24)CCC2(C3)CC2(F)F)nc1` (single isomer, unassigned) [Example 330, (*R)-2,2-Difluoro-3′-(5-fluoro-1H-pyrazolo[3,4-b]pyridin-4-yl)-2′-(5-fluoropyridin-2-yl)-4′,5′-dihydro-7′H-spiro[cyclopropane-1,6′-pyrazolo[1,5-a]pyridine]], for which the values for the IC50 in test [1] and in test [2] were 0.002 µM and 0.022 µM, respectively.
`Cc1cnc(N)cc1-c1c(-c2ccc(F)cn2)nn2c1COC(C)(C)C2` [Example 378, 4-(2-(5-Fluoropyridin-2-yl)-6,6-dimethyl-6,7-dihydro-4H-pyrazolo[5,1-c][1,4]oxazin-3-yl)-5-methylpyridin-2-amine]: the values for the 50% inhibitory concentration (IC50) in test [1] and in test [2] were 0.119 µM and 2.3 µM, respectively.
For `Fc1ccc(-c2nn3c(c2-c2ccnc4[nH]ncc24)CC2(C3)CC2(F)F)cc1` (single isomer, unassigned) [Example 251, (*R)-1′,1′-Difluoro-2-(4-fluorophenyl)-3-(1H-pyrazolo[3,4-b]pyridin-4-yl)spiro[4,6-dihydropyrrolo[1,2-b]pyrazole-5,2′-cyclopropane]], the IC50 in test [1] was determined as 0.026 µM; in test [2], 0.185 µM.
For `[2H]C([2H])([2H])C1(C([2H])([2H])[2H])Cn2nc(-c3ccc(F)cn3)c(-c3c(Cl)c(C)nc4[nH]ncc34)c2CO1` [Example 407, 3-(5-Chloro-6-methyl-1H-pyrazolo[3,4-b]pyridin-4-yl)-2-(5-fluoropyridin-2-yl)-6,6-bis(methyl-d3)-6,7-dihydro-4H-pyrazolo[5,1-c][1,4]oxazine], the half-maximal inhibitory concentration (IC50) in test [1] turned out to be 0.025 µM; in test [2], 0.219 µM.
As for `CC1(C)Cn2nc(-c3ccc(F)cn3)c(-c3ccnc4ccsc34)c2CO1` [Example 137, 2-(5-Fluoropyridin-2-yl)-6,6-dimethyl-3-(thieno[3,2-b]pyridin-7-yl)-6,7-dihydro-4H-pyrazolo[5,1-c][1,4]oxazine], the IC50 in test [1] was found to be 0.054 µM; in test [2] it was 1.33 µM.
On to `Cc1cc(-c2c(-c3ccc(F)cc3)nn3c2COC(C)(C)C3)c2cn[nH]c2n1` [Example 145, 2-(4-Fluorophenyl)-6,6-dimethyl-3-(6-methyl-1H-pyrazolo[3,4-b]pyridin-4-yl)-6,7-dihydro-4H-pyrazolo[5,1-c][1,4]oxazine], for which the IC50 in test [1] was 0.001 µM; in test [2], 0.004 µM.
In the case of `Fc1ccc(-c2nn3c(c2-c2ccnc4[nH]ncc24)CO[C@@H](C2CCC2)C3)nc1` (single isomer, unassigned) [Example 111, (*S)-6-Cyclobutyl-2-(5-fluoropyridin-2-yl)-3-(1H-pyrazolo[3,4-b]pyridin-4-yl)-6,7-dihydro-4H-pyrazolo[5,1-c][1,4]oxazine], the IC50 in test [1] amounted to 0.036 µM; in test [2] it was 1.07 µM.
Turning to `Cc1cc(-c2c(-c3ccc(F)cn3)nn3c2CNCC3)c2cn[nH]c2n1` [Example 2, 4-[2-(5-Fluoro-2-pyridyl)-4,5,6,7-tetrahydropyrazolo[1,5-a]pyrazin-3-yl]-6-methyl-1H-pyrazolo[3,4-b]pyridine], the IC50 was 0.019 µM in test [1] and 0.528 µM in test [2].
On to `Fc1ccc(-c2nn3c(c2-c2ccnc4[nH]ncc24)CC(F)(F)CC3)cc1` [Example 46, 4-(5,5-Difluoro-2-(4-fluorophenyl)-4,5,6,7-tetrahydropyrazolo[1,5-a]pyridin-3-yl)-1H-pyrazolo[3,4-b]pyridine], for which the figures for the IC50 in test [1] and in test [2] were 0.008 µM and 0.082 µM, respectively.
With `Cc1n[nH]c2nccc(-c3c(-c4ccc(F)cn4)nn4c3COC(C)(C(F)(F)F)C4)c12` (single isomer, unassigned) [Example 419, (*S)-2-(5-Fluoropyridin-2-yl)-6-methyl-3-(3-methyl-1H-pyrazolo[3,4-b]pyridin-4-yl)-6-(trifluoromethyl)-6,7-dihydro-4H-pyrazolo[5,1-c][1,4]oxazine], the IC50 in test [1] is 0.235 µM; in test [2], greater than 10 µM.
Consider `Cc1cc(-c2c(-c3ccc(F)cc3)nn3c2OCC2(C3)CC2(F)F)c2cn[nH]c2n1` (single isomer, unassigned) [Example 475, (*R)-2,2-Difluoro-2′-(4-fluorophenyl)-3′-(6-methyl-1H-pyrazolo[3,4-b]pyridin-4-yl)-5′H,7′H-spiro[cyclopropane-1,6′-pyrazolo[5,1-b][1,3]oxazine]], for which the IC50 in test [1] turned out to be 0.006 µM; in test [2], 0.036 µM.
Taken in the same sequence, the figures for `Cc1cc(-c2c(-c3ccc(F)cc3)nn3c2C[C@@H]2C[C@@H]23)c2cn[nH]c2n1` [Example 270] were 0.001 µM and 0.008 µM.
As for `C[C@@H]1Cn2nc(-c3ccc(F)cc3)c(-c3ccnc4[nH]ncc34)c2CO1` (single isomer, unassigned) [Example 82, (*R)-2-(4-Fluorophenyl)-6-methyl-3-(1H-pyrazolo[3,4-b]pyridin-4-yl)-6,7-dihydro-4H-pyrazolo[5,1-c][1,4]oxazine], the figures for the IC50 in test [1] and in test [2] were 0.002 µM and 0.026 µM, respectively.
As to `Fc1ccc(-c2nn3c(c2-c2ccnc4[nH]ncc24)C[C@H]2C[C@H]23)cc1` [Example 267, (4aR,5aR)-2-(4-Fluorophenyl)-3-(1H-pyrazolo[3,4-b]pyridin-4-yl)-4,4a,5,5a-tetrahydrocyclopropa[4,5]pyrrolo[1,2-b]pyrazole], the IC50 in test [1] was 0.006 µM; in test [2], 0.131 µM.
Turning to `Cc1cc(-c2c(-c3ccc(F)cc3)nn3c2[C@@H]2C[C@@H]2C3)c2cn[nH]c2n1` (relative stereo) [Example 276, (3b*R,4a*S)-2-(4-Fluorophenyl)-3-(6-methyl-1H-pyrazolo[3,4-b]pyridin-4-yl)-3b,4,4a,5-tetrahydrocyclopropa[3,4]pyrrolo[1,2-b]pyrazole], the IC50 in test [1] came to 0.001 µM; in test [2] it was 0.006 µM.
Taken in the same sequence, the figures for `CCC(=O)Nc1cc(-c2c(-c3ccc(F)cc3)nn3c2OCC2(CC2)C3)ccn1` [Example 455, N-(4-(2′-(4-Fluorophenyl)-5′H,7′H-spiro[cyclopropane-1,6′-pyrazolo[5,1-b][1,3]oxazin]-3′-yl)pyridin-2-yl)propionamide] were 0.001 µM and 0.001 µM.
On to `CC1(CF)CCc2c(-c3ccncc3)c(-c3ccc(F)cn3)nn2C1` (single isomer, unassigned) [Example 284, (*S)-6-(Fluoromethyl)-2-(5-fluoro-2-pyridyl)-6-methyl-3-(4-pyridyl)-5,7-dihydro-4H-pyrazolo[1,5-a]pyridine], for which the values for the IC50 in test [1] and in test [2] were 0.006 µM and 0.068 µM, respectively.
On to `Cc1cc(-c2c(-c3ccc(F)cn3)nn3c2OCC2(CC2)C3)c2cn[nH]c2n1` [Example 462, 2′-(5-Fluoropyridin-2-yl)-3′-(6-methyl-1H-pyrazolo[3,4-b]pyridin-4-yl)-5′H,7′H-spiro[cyclopropane-1,6′-pyrazolo[5,1-b][1,3]oxazine]], for which the IC50 in test [1] turned out to be 0.001 µM; in test [2] it was 0.02 µM.
For `CC1(C)Cn2nc(-c3ccc(F)cn3)c(-c3c(F)cnc4[nH]nc(Cl)c34)c2CO1` [Example 392, 3-(3-Chloro-5-fluoro-1H-pyrazolo[3,4-b]pyridin-4-yl)-2-(5-fluoropyridin-2-yl)-6,6-dimethyl-6,7-dihydro-4H-pyrazolo[5,1-c][1,4]oxazine] the same measures were 0.007 µM and 0.026 µM.
For `Fc1ccc(-c2nn3c(c2-c2ccnc4[nH]ncc24)CC[C@@H]2C[C@@H]23)cc1` (stereo in doubt) [Example 340, (5a*R,6a*S)-2-(4-Fluorophenyl)-3-(1H-pyrazolo[3,4-b]pyridin-4-yl)-5,5a,6,6a-tetrahydro-4H-cyclopropa[e]pyrazolo[1,5-a]pyridine], the values for the half-maximal inhibitory concentration (IC50) in test [1] and in test [2] were 0.005 µM and 0.039 µM, respectively.
`[2H]C([2H])([2H])[C@]1(C(F)(F)F)Cn2nc(-c3ccc(F)cn3)c(-c3c(F)c(C)nc4[nH]nc(C)c34)c2CO1` (single isomer, unassigned) [Example 430, (*R)-3-(5-Fluoro-3,6-dimethyl-1H-pyrazolo[3,4-b]pyridin-4-yl)-2-(5-fluoropyridin-2-yl)-6-(methyl-d3)-6-(trifluoromethyl)-6,7-dihydro-4H-pyrazolo[5,1-c][1,4]oxazine]: the results for the IC50 in test [1] and in test [2] were 0.092 µM and 1.19 µM, respectively.

For the origin of these results see patent publication US20230339970A1, “CASEIN KINASE 1 DELTA MODULATORS” (priority 2020, published 2023).
